Results taken from ChEMBL document CHEMBL1201862, “PubChem BioAssay data set” (2004).
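Step 1: Grow cells in 96-well plates. Step 2: Expose to compound for 48 hours at 5 concentrations. Step 3: Interpolate endpoints linearly; if unreached, use highest concentration. GI50: concentration for 50% inhibition of growth.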 Calls of active or inactive are those of the source. Cut-off read from the data, not from the text of the source: active = GI50 up to about 1.1 µM and inactive = higher.

Key:
Experiment in all cases: DTP human tumour cell line panel, 48 h
A549 = test system: A549
CAKI-1 = test system: CAKI-1
COLO 205 = test system: COLO 205
HCT-116 = test system: HCT-116
HCT-15 = test system: HCT-15
HL-60 = test system: HL-60
K562 = test system: K562
NCI-H23 = test system: NCI-H23
NCI-H522 = test system: NCI-H522
SF-268 = test system: SF-268
SK-MEL-2 = test system: SK-MEL-2
TK-10 = test system: TK-10
UACC-257 = test system: UACC-257
NCI-H226 = test system: NCI-H226

| Structure (SMILES) | GI50 (A549) | GI50 (CAKI-1) | GI50 (COLO 205) | GI50 (HCT-116) | GI50 (HCT-15) [µM] | GI50 (HL-60) | GI50 (K562) | GI50 (NCI-H23) | GI50 (NCI-H522) | GI50 (SF-268) | GI50 (SK-MEL-2) | GI50 (TK-10) | GI50 (UACC-257) | GI50 (NCI-H226) |
| --- | --- | --- | --- | --- | --- | --- | --- | --- | --- | --- | --- | --- | --- | --- |
| CN(/N=C\c1ccnc2ccccc12)c1ccccc1 | 21.6 µM (inactive) | 31.5 µM (inactive) | 20.3 µM (inactive) | 17.6 µM (inactive) | 17.1 | 17.5 µM (inactive) | 20.6 µM (inactive) | 22.3 µM (inactive) | 17.8 µM (inactive) | 56.1 µM (inactive) | 19.5 µM (inactive) | 35.3 µM (inactive) | 20 µM (inactive) | – |
| Nc1nc(=O)c(/N=N/c2ccccc2)c(N)[nH]1 | 29.9 µM (inactive) | 66.7 µM (inactive) | 65 µM (inactive) | 16.1 µM (inactive) | 30.5 | 28.1 µM (inactive) | 11 µM (inactive) | 22.8 µM (inactive) | 47.4 µM (inactive) | 28.1 µM (inactive) | 39.2 µM (inactive) | 59.8 µM (inactive) | 56.9 µM (inactive) | 76 µM (inactive) |
| CCCCCCCCCCCCCCCC(=O)NCC(COP(=O)([O-])OCC[N+](C)(C)C)OCC (centres undefined) | 21 µM (inactive) | 19.7 µM (inactive) | 2.31 µM (inactive) | 11.2 µM (inactive) | 6.4 | – | – | 18.8 µM (inactive) | – | 12.8 µM (inactive) | – | 1.63 µM (inactive) | 15.7 µM (inactive) | 3.12 µM (inactive) |
| CC1=NN(C(=O)Nc2ccccc2)C(=O)C2CCC(=O)N12 (centres undefined) | > 100 µM (inactive) | > 100 µM (inactive) | > 100 µM (inactive) | > 100 µM (inactive) | > 100 | > 100 µM (inactive) | > 100 µM (inactive) | > 100 µM (inactive) | – | > 100 µM (inactive) | > 100 µM (inactive) | > 100 µM (inactive) | > 100 µM (inactive) | – |
| CCOC(=O)/C=C(/CN1C(=O)c2ccccc2C1=O)c1ccccc1 | > 100 µM (inactive) | > 100 µM (inactive) | > 100 µM (inactive) | > 100 µM (inactive) | > 100 | – | > 100 µM (inactive) | > 100 µM (inactive) | > 100 µM (inactive) | > 100 µM (inactive) | > 100 µM (inactive) | > 100 µM (inactive) | > 100 µM (inactive) | > 100 µM (inactive) |
| C[N+](C)(C)C1CC([N+](C)(C)C)C2c3ccccc3C21 (centres undefined) | > 100 µM (inactive) | > 100 µM (inactive) | > 100 µM (inactive) | > 100 µM (inactive) | > 100 | > 100 µM (inactive) | > 100 µM (inactive) | > 100 µM (inactive) | > 100 µM (inactive) | > 100 µM (inactive) | – | > 100 µM (inactive) | > 100 µM (inactive) | > 100 µM (inactive) |
| O=C(CC1(O)C(=O)Nc2c(Cl)ccc(Cl)c21)c1ccc(F)cc1 (centres undefined) | 58.1 µM (inactive) | 44.7 µM (inactive) | 96.6 µM (inactive) | – | 38.7 | 28.4 µM (inactive) | 23.3 µM (inactive) | 23.2 µM (inactive) | 30.3 µM (inactive) | 36.1 µM (inactive) | 48.5 µM (inactive) | 55.8 µM (inactive) | 33.5 µM (inactive) | 24.8 µM (inactive) |
| OC12CCC3(OC4CCCCO4)c4ccccc4C3C1c1ccccc12 (centres undefined) | 85.1 µM (inactive) | – | 55.1 µM (inactive) | 35 µM (inactive) | 24.2 | 30.3 µM (inactive) | 46 µM (inactive) | 90.2 µM (inactive) | 37.6 µM (inactive) | 65.9 µM (inactive) | > 100 µM (inactive) | > 100 µM (inactive) | 91.2 µM (inactive) | > 100 µM (inactive) |
| COc1ccc(NC(=O)CC(=O)N/N=C(\C)c2cc3ccccc3oc2=O)cc1 | > 100 µM (inactive) | – | > 100 µM (inactive) | > 100 µM (inactive) | > 100 | > 100 µM (inactive) | > 100 µM (inactive) | > 100 µM (inactive) | > 100 µM (inactive) | – | – | > 100 µM (inactive) | 89.9 µM (inactive) | > 100 µM (inactive) |
| CCCCCCCCCCCCCCCC(=O)NC1CCc2cc(O)c(O)c(O)c2-c2ccc(SC)c(=O)cc21 (centres undefined) | 1.49 µM (inactive) | 13 µM (inactive) | 5.21 µM (inactive) | 3.86 µM (inactive) | 6.03 | 3.35 µM (inactive) | 1.89 µM (inactive) | 1.37 µM (inactive) | 2.37 µM (inactive) | 5.28 µM (inactive) | – | 15.8 µM (inactive) | 11.1 µM (inactive) | 10.6 µM (inactive) |
| COc1ccc(C(=O)C(c2ccc(OC)cc2)C2(O)C(=O)Nc3c(C)cc(Cl)cc32)cc1 (centres undefined) | > 100 µM (inactive) | – | > 100 µM (inactive) | 70.3 µM (inactive) | > 100 | 17.1 µM (inactive) | 21.6 µM (inactive) | 85.5 µM (inactive) | 28 µM (inactive) | 82.8 µM (inactive) | > 100 µM (inactive) | > 100 µM (inactive) | 55 µM (inactive) | 76.6 µM (inactive) |
| c1ccc(SC(Sc2ccccc2)=C2CCC2)cc1 | > 100 µM (inactive) | > 100 µM (inactive) | > 100 µM (inactive) | > 100 µM (inactive) | > 100 | > 100 µM (inactive) | > 100 µM (inactive) | > 100 µM (inactive) | > 100 µM (inactive) | > 100 µM (inactive) | > 100 µM (inactive) | > 100 µM (inactive) | > 100 µM (inactive) | – |
| O=[N+]([O-])c1cc(/C=N/NS(=O)(=O)c2ccc(F)cc2)c(O)c([N+](=O)[O-])c1 | 48 µM (inactive) | 76.2 µM (inactive) | 18.9 µM (inactive) | 33.7 µM (inactive) | 26.5 | 38.5 µM (inactive) | 41.2 µM (inactive) | 24.9 µM (inactive) | 21.2 µM (inactive) | 40.1 µM (inactive) | 45.2 µM (inactive) | 57.1 µM (inactive) | 42.3 µM (inactive) | – |
| C=CCC1C(=O)CC2(C)CC(=O)C(CC=C)C12C (centres undefined) | > 100 µM (inactive) | > 100 µM (inactive) | > 100 µM (inactive) | > 100 µM (inactive) | > 100 | > 100 µM (inactive) | > 100 µM (inactive) | > 100 µM (inactive) | > 100 µM (inactive) | > 100 µM (inactive) | – | > 100 µM (inactive) | > 100 µM (inactive) | > 100 µM (inactive) |
| Cn1cnc([N+](=O)[O-])c1Sc1nnnn1C | 99.5 µM (inactive) | 17.1 µM (inactive) | 12.8 µM (inactive) | 14.9 µM (inactive) | – | – | 16.7 µM (inactive) | 19.6 µM (inactive) | 6.38 µM (inactive) | 21.5 µM (inactive) | 16.9 µM (inactive) | 17.5 µM (inactive) | 16.3 µM (inactive) | 44.7 µM (inactive) |
| CSc1nnc(COc2ccc(Cl)cc2)o1 | > 100 µM (inactive) | > 100 µM (inactive) | > 100 µM (inactive) | > 100 µM (inactive) | > 100 | – | – | > 100 µM (inactive) | > 100 µM (inactive) | > 100 µM (inactive) | – | > 100 µM (inactive) | > 100 µM (inactive) | – |
